# Measurements taken from PMC3627194, “Xentry, a new class of cell-penetrating peptide uniquely equipped for delivery of drugs” (Scientific Reports, 2013).
# What was measured:
# HepG2 cells [1] = test: Assay to test for cell permeability of peptides; type: cell-based; conditions: confocal microscopy
# Experimental: Figure 1 Cell-permeability of X-protein peptides. (a) X-protein peptides aa 1–20 and 16–35 are cell-permeable. Four FITC-labelled peptides encompassing aa 1–20, 16–35, 21–40 and 34–53 from the N-terminal region of the X-protein were incubated at 10 μM with HepG2 cells and their uptake by the cells recorded by confocal microscopy. Cell nuclei were stained blue with DAPI. (b) The sequence of the first 35 N-terminal residues of the HBV X-protein are shown with the sequence of Xentry (LCLRPVG; residues 16–22) highlighted in red. Short FITC-labelled peptides (10 μM) aa 16–26, 16–24 and 16–22 (Xentry) derived from peptide aa 16–35 also permeate HepG2 cells (upper panel). […] Cell nuclei were stained blue with DAPI. […] Cell nuclei were stained blue with DAPI. Scale bar, 50 μm.
# (§1) HepG2 cells (ATCC, Manassas, VA) were seeded into 8-well chamber slides at 1 × 10^5 cells per well in MEM media (Gibco, Life Technologies New Zealand Ltd) containing 10% FCS and PSG. […] L-isomeric peptides were diluted in 500 μl of MEM media without FCS, whereas D-isomeric peptides were diluted in the same media containing FCS, and each added to cells at a final concentration of 10 μM, or as indicated. The cells were incubated for 3 h at 37°C in a 5% CO2 atmosphere, washed with PBS, fixed with 4% formaldehyde for 30 min, and washed thrice with PBS. A drop of Prolong Gold anti-fade reagent with DAPI (Invitrogen, Life Technologies New Zealand Ltd) was added, and the cells mounted and examined with a Nikon E600 fluorescence microscope or a Leica TCS-SP2 confocal microscope.
# (§2) Supplementary Figure 3. The D-isomeric form of Xentry aa 16-22 is cell permeable, and is stable in serum for at least 4 h.
# (§3) (a) FITC-labelled D-isomeric Xentry was incubated with HepG2 cells at concentrations of […] for 3 h.
# (§4) Uptake was recorded by fluorescence microscopy. Cell nuclei were stained with DAPI. (b) FITC-labelled L-isomeric and D-isomeric forms of Xentry were incubated in serum for 0, 1, and 4 h before incubation with HepG2 cells. Cell nuclei were stained with DAPI. Scale bar, 50 μm. […]
# C32 (melanoma) = test: Cell permeability of Xentry, C32 cell line; type: cell-based; conditions: data not shown
# DU145 (prostate) = test: Cell permeability of Xentry, DU145 cell line; type: cell-based; conditions: data not shown
# H441 (lung) = test: Cell permeability of Xentry, H441 cell line; type: cell-based; conditions: data not shown
# BT474 (breast) = test: Cell permeability of Xentry, BT474 cell line; type: cell-based; conditions: data not shown
# Cos (kidney) = test: Cell permeability of Xentry, Cos cell line; type: cell-based; conditions: data not shown
# [2] = test system: Rin-m5F (pancreatic β-cell); test: Cell permeability of Xentry, Rin-m5F cell line; type: cell-based; conditions: data not shown
# [3] = test system: human peripheral blood lymphocytes; test: Uptake of Xentry by non-adherent blood lymphocytes; type: cell-based; conditions: FITC-labelled Xentry 10 μM
# erythrocytes = test: Uptake of Xentry by erythrocytes; type: cell-based, human; conditions: FITC-labelled Xentry 10 μM
# [4] = test system: K562 erythroleukemia cells; type: cell-based; conditions: non-adherent K562 erythroleukemia cells, FITC-labelled Xentry (LCLRPVG), fluorescence microscopy
# Experimental: (§5) K562 cells TK-1 cells Activated TK-1 cells
# (§6) Supplementary Figure 1. […] FITC- […]
# (§7) labelled Xentry (LCLRPVG; aa 16-22) was incubated with non-adherent K562 erythroleukemia cells and mouse TK-1 T cells and with Mn++-activated TK-1 cells attached to MAdCAM-1-coated plates. Cell uptake was recorded by fluorescence microscopy. Cell nuclei were stained blue with DAPI. Plates were coated with 1 µg/ml of MAdCAM-1 overnight and activated TK-1 cells were allowed to bind to the plates for 45 mins before incubation with FITC-labelled Xentry for 3 h. Scale bar represents […]
# mouse TK-1 T cells = type: cell-based; conditions: non-adherent mouse TK-1 T cells, FITC-labelled Xentry (LCLRPVG), fluorescence microscopy
# Experimental: as §5, §6, §7
# [5] = test system: peripheral blood monocytes attached to plastic; test: Uptake of Xentry by adherent blood monocytes; type: cell-based, human; conditions: FITC-labelled Xentry 10 μM
# [6] = test system: Mn++-activated adherent TK-1 T cells bound to MAdCAM-1-coated plates; type: cell-based, mouse; conditions: Mn++-activated TK-1 cells bound via α4β7 to plates coated with 1 µg/ml MAdCAM-1, FITC-labelled Xentry 3 h
# Experimental: as §5, §6, §7
# HepG2 cells [7] = type: cell-based
# Experimental: as §1
# Untreated 37°C 4°C deoxyglucose Heparin Chlorpromazine
# Supplementary Figure 2. Cellular requirements for internalization of Xentry by HepG2 cells. (a) Incubation of FITC-labelled Xentry with HepG2 cells for 3 h at 4°C, or in the presence of 10 mM sodium azide and 6 mM 2-deoxy-D-glucose, 2 µg/ml heparin, or 10 µg/ml of chlorpromazine, as indicated, inhibited peptide uptake. Cell nuclei were stained blue with DAPI. Scale bar, 50 μm. […]
# [8] = type: in vitro ADME; conditions: FITC-labelled peptide incubated in serum 0, 1 and 4 h, then incubated with HepG2 cells; read-out cell uptake by fluorescence microscopy
# Experimental: as §2, §3, §4
# [9] = Acute toxicity after intravenous injection; type: in vivo; conditions: very high concentrations, single injection into the circulation
# [10] = test system: K562 cells transfected to express syndecan-4; test: Uptake of Xentry by K562 cells engineered to express syndecan-4; type: cell-based; conditions: TAMRA-lclrpvg 20 μM, 3 h, 48 h after transfection with pCMV-hygro-SDC4
# Experimental: Cell nuclei were stained blue with DAPI. […] Scale bar, 50 μm.
# The media was removed and replaced with RPMI without serum. Four micrograms of the syndecan-4 plasmid pCMV-hygro-SDC4 and 4 μl of polymag transfection reagent (OZ Biosciences, Marseille, France) were mixed in 100 μl of Opti-MEM media. The mixture was incubated for 20 min at room temperature, added to the cells, and the tissue culture plate placed onto a magnetic plate for 20 min. The media was removed and replaced with RPMI media containing 10% FCS, followed by incubation for 48 h at 37°C and 5% CO2, with a media change after 24 h. TAMRA-labelled Xentry (TAMRA-lclrpvg) was added to the transfectants 48 h following transfection to a final concentration of 20 μM, and the cells were incubated for 3 h. The cells were removed from the plate, washed thrice with PBS, cytospun onto a slide, and fixed with 4% formaldehyde for 15 min. They were washed with PBS and DAPI added for visualization of cell nuclei. […] The cells were then examined using a Nikon E600 fluorescent microscope, and photographed.
# [11] = type: in vivo, Balb/c mice
# Experimental: (§8) All experiments in mice were performed in accordance with relevant institutional guidelines and regulations, and were subject to a protocol approved by the Animal Ethics Committee, the University of Auckland. Different amounts (0.1 mg, 1 mg and 5 mg) of a TAMRA-labelled D-isomeric form of Xentry (TAMRA-lclrpvg; Peptide 2.0 Inc., Chantilly, VA) were dissolved in 50 μl of PBS. […] Cardiac blood was collected into an EDTA tube and cytospun onto slides, and viewed by fluorescence microscopy to determine uptake of the peptide by blood cells. The major organs of each mouse was harvested and dissected in half to be either homogenized or placed in a cryotube with isopentane, frozen and sectioned. For homogenization, the organs were weighed and then homogenized in 500 μl of PBS in an Omni bead-ruptor homogenizer (OMNI International, Kennesaw, GA). Equal volumes of homogenate and 8 M guanidinium chloride were mixed, and then centrifuged at 12,000 g for 5 min, and fluorescence of the supernatant measured in a fluorescence plate reader.
# Supplementary Figure 5 (cont)
# Heart Lung Liver Spleen Pancreas Kidney Stomach Intestine Colon Muscle Brain […]
# Supplementary Figure 5. Biodistribution of TAMRA-labelled Xentry intravenously injected into mice. (a) Mice were intravenously injected with 0.1 mg and 5 mg of TAMRA-labelled Xentry and the fluorescence of organ homogenates was measured 15 min, 1, 6, and 24 h later. Results are presented as the mean + SD (n = 3). Refer to Figure 4d for the fluorescence of organ homogenates of mice injected with 1 mg of Xentry. (b) Fluorescence of sections of the major organs of mice intravenously injected with 5 mg of TAMRA-labelled Xentry. The liver sections for the 15 min time-point […]
# circulating blood cells = type: in vivo, Balb/c mice; conditions: 0.1, 1 and 5 mg i.v.; cytospins of whole blood at 15 min, 1 h, 6 h and 24 h
# Experimental: as §8
# Supplementary Figure 6. […] A sample of […]
# cardiac blood was collected from mice injected with 0.1, 1 and 5 mg of TAMRA-labelled Xentry at 4 different time points, and cytospun onto a slide. The blood sample was examined by brightfield and fluorescence microscopy. […]
substance,measurement,setting,value
"LCLRPVG [Xentry, 7 amino acid residue peptide LCLRPVG (residues 16–22) of the HBV X-protein; FITC-labelled in uptake tests]",Cell permeability (uptake by HepG2 cells),"HepG2 cells [1]; FITC-labelled L-isomeric peptide 10 μM, MEM without FCS, 3 h, 37°C, cells fixed",cell-permeable
same,Subcellular localisation after uptake,"HepG2 cells [1]; FITC-labelled peptide 10 μM, HepG2 cells, DAPI",taken up into the cytoplasm and nucleus
same,Cell permeability,C32 (melanoma),capable of permeating
same,Cell permeability,DU145 (prostate),capable of permeating
same,Cell permeability,H441 (lung),capable of permeating
same,Cell permeability,BT474 (breast),capable of permeating
same,Cell permeability,Cos (kidney),capable of permeating
same,Cell permeability,[2],capable of permeating
same,Cell permeability,[3],incapable of permeating
same,Cell permeability,erythrocytes,incapable of permeating
same,Cell permeability,[4],incapable of permeating
same,Cell permeability,mouse TK-1 T cells,incapable of permeating
same,Cell uptake,[5],taken up
same,Cell uptake,[6],taken up
same,Internalization by HepG2 cells at 4°C,"HepG2 cells [7]; FITC-labelled Xentry, 3 h, 4°C",not at 4 °C
same,Internalization by HepG2 cells at 37°C,"HepG2 cells [7]; FITC-labelled Xentry, 3 h, 37°C",internalized
same,Uptake in the presence of heparin,"HepG2 cells [7]; HepG2, 2 µg/ml heparin, 3 h",blocked
same,Uptake in the presence of chlorpromazine,"HepG2 cells [7]; HepG2, 10 µg/ml chlorpromazine (clathrin pathway inhibitor), 3 h",blocked
same,Uptake after pretreatment with azide and deoxyglucose,"HepG2 cells [7]; HepG2, 10 mM sodium azide and 6 mM 2-deoxy-D-glucose, 3 h",blocked
same,Effect of cytochalasin D on uptake,"HepG2 cells [7]; HepG2, data not shown",without effect
same,Effect of filipin on uptake,"HepG2 cells [7]; HepG2, data not shown",without effect
same,Time to inactivation in serum,[8],≤ 1 h
same,Acute toxicity,[9],no signs of acute toxicity
"TAMRA-lclrpvg [TAMRA-labelled Xentry, TAMRA-labelled D-isomeric form of Xentry]",Uptake by syndecan-4-expressing K562 transfectants,[10],increased uptake
same,"Uptake by heart, pancreas, brain relative to other tissues","[11]; 0.1, 1 and 5 mg i.v., organ homogenates",less well
same,Time to uptake by major tissues (organ homogenates),"[11]; 0.1, 1 and 5 mg i.v., lungs, liver, spleen, kidneys, stomach, small intestine, colon, muscle, homogenate fluorescence, n = 3",≤ 15 min
same,"Level in most organs, except liver and kidneys, by 24 h","[11]; i.v., 24 h, organ homogenates",only low levels
same,Distribution within tissue sections,"[11]; i.v., fluorescence of organ sections","concentrated within particular regions of certain tissues, such as the epithelia lining the colon, stomach and bronchial airways"
same,Uptake by circulating blood cells,circulating blood cells,not taken up and sequestered
